According to patent US10525055B2, “Opioid receptor antagonist prodrugs” (Nirsum Laboratories, Inc., priority 2017, dated 2020):

Columns and labels:
[1] = cited from earlier work
[2] = Solubility determination in oil (cottonseed oil, sesame oil); conditions: Sesame oil; heating temp. 40 °C, obs. temp. 40 °C
Procedure: A known amount of test substance (˜40 mg) was weighed into the vial, 100 μL of oil was added and heated to 60° C. and then system was slurried to reach equilibrium. […] Extra oil was added into the vial once compound precipitated out and then the system was re-equilibrated at 1000 rpm at room temperature (25° C.). Final concentration was determined by HPLC method as described below in Table 6a and 6b.

[3] = molecular target: T1, MOR (Homo sapiens, UniProt P35372); assay: Opioid receptor binding assay, MOR ([3H]DAMGO)
T1 construct: expressed in transfected cells; membranes prepared from them
T1 sequence (P35372 whole entry): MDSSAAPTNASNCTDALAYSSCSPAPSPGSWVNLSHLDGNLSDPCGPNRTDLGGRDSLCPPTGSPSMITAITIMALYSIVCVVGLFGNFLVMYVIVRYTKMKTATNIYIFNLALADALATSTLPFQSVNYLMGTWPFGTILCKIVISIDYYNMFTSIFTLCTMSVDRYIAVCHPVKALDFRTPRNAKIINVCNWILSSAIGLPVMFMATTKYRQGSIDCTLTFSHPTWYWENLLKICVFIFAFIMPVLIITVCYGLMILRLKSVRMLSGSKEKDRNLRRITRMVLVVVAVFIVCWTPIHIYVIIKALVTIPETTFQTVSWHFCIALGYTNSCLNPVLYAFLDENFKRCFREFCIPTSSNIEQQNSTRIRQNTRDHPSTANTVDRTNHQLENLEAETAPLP

[4] = Polymorph screening of solid state drug substances; conditions: for XRPD results (Dried): stirred 50 °C 72 hours, solids dried; for Visual observation 50° C. / Visual observation RT: target conc. 100 mg/ml
[5] = Plasma stability assay, rat plasma; type: in vitro ADME; conditions: 37° C., 10 μM
[6] = molecular target: T2, KOR (Homo sapiens, UniProt P41145); assay: Opioid receptor binding assay, KOR ([3H]Diprenorphine)
T2 construct: expressed in transfected cells; membranes prepared from them
T2 sequence (P41145 whole entry): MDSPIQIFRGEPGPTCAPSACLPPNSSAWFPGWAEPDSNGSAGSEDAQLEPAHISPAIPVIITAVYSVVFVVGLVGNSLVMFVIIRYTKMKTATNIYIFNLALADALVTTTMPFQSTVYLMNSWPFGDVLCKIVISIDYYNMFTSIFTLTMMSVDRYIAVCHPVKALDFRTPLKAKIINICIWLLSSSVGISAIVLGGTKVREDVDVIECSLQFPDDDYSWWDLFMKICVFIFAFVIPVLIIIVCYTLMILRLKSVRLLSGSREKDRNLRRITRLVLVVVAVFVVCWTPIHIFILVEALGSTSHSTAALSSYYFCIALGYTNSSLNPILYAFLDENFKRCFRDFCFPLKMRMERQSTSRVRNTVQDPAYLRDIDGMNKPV

[7] = Equilibrium solubility in water; conditions: heating temp. 40 °C, obs. temp. 40 °C

Oc1ccc2c3c1O[C@H]1[C@H](O)CC[C@@]4(O)[C@@H](C2)N(CC2CC2)CC[C@]314 [6-β-naltrexol]
time of peak plasma levels after oral dosing [1]: one
mean elimination half-life ([1]; oral): thirteen

C=C1CC[C@@]2(O)C3Cc4ccc(OC(=O)CCCCCCCCCCCCCCCCCCCCC)c5c4[C@@]2(CCN3CC2CC2)[C@H]1O5 [Compound 14, (4aS,7aS,12bS)-3-(cyclopropylmethyl)-4a-hydroxy-7-methylene-2,3,4,4a,5,6,7,7a-octahydro-1H-4,12-methanobenzofuro[3,2-e]isoquinolin-9-yl docosanoate]
Approximate Solubility (mg/mL) in Excipient: Sesame oil [2]: <51 mg/mL
IC50 [3]: 12.5 nM
%Inh@MaxDose ([3]; MOR, MaxDose 10000 nM): 92.7%
XRPD results (Dried) ([4]; Acetone): Pattern A
Visual observation 50° C. ([4]; Acetone): Clear
Visual observation RT ([4]; Acetone): Slimy
XRPD results (Dried) ([4]; EtOAc): Pattern A
Visual observation 50° C. ([4]; EtOAc): Clear
Visual observation RT ([4]; EtOAc): Slurry
XRPD results (Dried) ([4]; Heptane): Pattern B
Visual observation 50° C. ([4]; Heptane): Slurry
Visual observation RT ([4]; Heptane): Slurry
XRPD results (Dried) ([4]; Isopropanol): Pattern A
Visual observation 50° C. ([4]; Isopropanol): Clear
Visual observation RT ([4]; Isopropanol): Clear
XRPD results (Dried) ([4]; MTBE): Pattern A
Visual observation 50° C. ([4]; MTBE): Clear
Visual observation RT ([4]; MTBE): Clear
% remaining at time point in minutes, 0 min ([5]; 0 min): 100%
% remaining at time point in minutes, 15 min ([5]; 15 min): 94%
% remaining at time point in minutes, 120 min ([5]; 120 min): 112%
% remaining at time point in minutes, 480 min ([5]; 480 min): 107%
% remaining at time point in minutes, 1440 min ([5]; 1440 min): 120%
IC50 [6]: 1770 nM
%Inh@MaxDose ([6]; KOR, MaxDose 10000 nM): 68.1%
Equilibrium solubility (mg/mL) Water [7]: 0.0056 mg/mL

O=C1CC[C@@]2(O)[C@H]3Cc4ccc(O)c5c4[C@@]2(CCN3CC2CC2)[C@H]1O5 [naltrexone, 17-(cyclopropylmethyl)-4,5α-epoxy-3,14-dihydroxymorphinan-6-one, reference compound]
time of peak plasma levels after oral dosing [1]: one
